Measurements reported in paper PMC13252604, “First Generation Proteolysis Targeting Chimeras (PROTACs) for the Treatment of Progeria” (Advanced Science, 2026).

Test system: HGADFN167 Lmna^G608G/G608G fibroblasts
Test: Oxygen consumption rates (OCR) measurement
Assay type: cell-based, human
Conditions: HGADFN167, 5 µM, 20 days
From the text: FIGURE 6 (A) Representative cropped immunoblots and progerin quantification in human Lmna^G608G/G608G fibroblasts. MW, molecular weight (in kDa) markers. […] (B) PROTAC 2 increases cell proliferation (upper panels) and decreases the number of misshapen nuclei (lower panels). White arrows highlight selected misshapen nuclei. (C) PROTAC 2 decreases senescence‐associated β‐galactosidase (SA‐βgal) activity, interleukin (IL) 6, p16 and p21 senescent markers. Bar graphs show mean±sem of 2 (SA‐βgal and p21) or 3 (IL‐6 and p16) independent experiments performed in triplicate. (D) PROTAC 2 decreases phosphorylated histone 2AX (pH2AX) and increases trimethylated histone 3 (H3K9Me3) levels. (E) PROTAC 2 increases the oxygen consumption rate (OCR), ATP production and the number of healthy mitochondria in human progeroid cells. Bar graphs show mean±sem of 2 independent experiments performed in duplicate. […] Data were analysed using one‐way ANOVA followed by Dunnett's post–hoc test vs vehicle (panel A) or vs G608G cells (panels B‐E). ^*, p < 0.05; ^**, p < 0.01; ^***, p < 0.001; ^****, p < 0.0001. […]
Mitochondria were evaluated for the integrity of the membrane, matrix and cristae, and were classified as mitochondria with normal morphology (black arrows) or damaged mitochondria (red arrows, with alterations in the membrane, presence of inclusions in the matrix and concentric cristae or “onion-like” mitochondria). […]
ferrocyanide, 0.6 mL 5 M NaCl, 0.2 mL 0.2 M MgCl2, (all from Sigma Aldrich) and 6.2 mL of deionized water in a total volume of 20 mL] in the dark in a humidified incubator at 37 °C for 24 h without CO2 supply. Then, an equal volume of the supernatant of each well was transferred to a new 96-well plate for fluorescence measurement. The resultant production of fluorescein was measured using a FluoStar Optima instrument (BMG Labtech) with an excitation of 485 nm and emission at 535 nm. […]
Total RNA was extracted by RNAeasy Mini Kit (Qiagen) according to the manufacturer instructions and subsequently quantified using the NanoPhotometer N60 (Implen). […]

Compound: CC1(C)Oc2cc3oc(=O)ccc3cc2C[C@@H]1OC(=O)CCCCCNc1cccc2c1C(=O)N(C1CCC(=O)NC1=O)C2=O (stereo partly drawn) [compound 2]
- ATP production: enhances
- basal respiration: enhances
- oxygen consumption rate (OCR): enhances OCR in human progeroid cells
